Results taken from ChEMBL document CHEMBL5726287, “Biaryl acetamide compounds and methods of use thereof” (2017).

These molecules were tested against Mast/stem cell growth factor receptor Kit (Homo sapiens, UniProt P10721) (assay: Competition Binding Assay: Competition binding assays used herein were developed, validated and performed as described in Fabian et al., Nature Biotechnology 2005, 23, 329-336. Kinases were produced as fusions to T7 phage (See, Fabian et al. or WO04/015142) or alternatively, the kinases were expressed in HEK-293 cells and subsequently tagged with DNA for PCR detection (See, WO08/005,310). […] The liganded beads were blocked with excess biotin and washed with blocking buffer (SeaBlock (Pierce), 1% BSA, 0.05% Tween 20, 1 mM DTT) to remove unbound ligand and to reduce non-specific binding. […] Test compounds were prepared as 100× stocks in DMSO and diluted into the aqueous environment. Kds were determined using an eleven point threefold serial dilutions. DMSO or control compounds were was added to control assays lacking a test compound.).
Format: cell-based

Chain of Mast/stem cell growth factor receptor Kit (P10721 whole entry, the tested form may be a part): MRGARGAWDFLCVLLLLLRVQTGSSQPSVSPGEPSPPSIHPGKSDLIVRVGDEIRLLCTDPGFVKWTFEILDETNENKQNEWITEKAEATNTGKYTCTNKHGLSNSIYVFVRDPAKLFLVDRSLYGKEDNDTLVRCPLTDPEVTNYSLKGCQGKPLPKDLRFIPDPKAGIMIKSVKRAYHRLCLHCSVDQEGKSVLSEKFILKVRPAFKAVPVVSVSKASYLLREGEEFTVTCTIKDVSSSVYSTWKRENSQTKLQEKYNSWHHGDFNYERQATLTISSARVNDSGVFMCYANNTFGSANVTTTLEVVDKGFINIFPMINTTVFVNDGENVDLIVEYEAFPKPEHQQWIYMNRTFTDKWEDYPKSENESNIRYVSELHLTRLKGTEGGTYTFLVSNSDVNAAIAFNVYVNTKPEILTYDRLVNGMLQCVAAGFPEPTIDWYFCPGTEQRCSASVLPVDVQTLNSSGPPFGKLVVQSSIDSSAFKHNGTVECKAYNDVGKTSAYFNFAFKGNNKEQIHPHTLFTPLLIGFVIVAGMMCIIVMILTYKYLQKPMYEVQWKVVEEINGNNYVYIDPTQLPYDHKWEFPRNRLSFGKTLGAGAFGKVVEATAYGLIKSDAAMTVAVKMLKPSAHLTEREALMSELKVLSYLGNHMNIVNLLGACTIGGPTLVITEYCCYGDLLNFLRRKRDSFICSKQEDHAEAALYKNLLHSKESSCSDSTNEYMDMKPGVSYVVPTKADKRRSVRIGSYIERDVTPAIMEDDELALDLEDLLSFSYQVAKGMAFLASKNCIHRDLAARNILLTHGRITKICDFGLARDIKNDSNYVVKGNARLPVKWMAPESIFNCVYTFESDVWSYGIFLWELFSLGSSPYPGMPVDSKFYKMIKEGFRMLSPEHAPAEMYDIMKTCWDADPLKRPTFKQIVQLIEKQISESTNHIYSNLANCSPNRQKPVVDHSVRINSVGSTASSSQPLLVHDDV

Kd	Compound
< 5 nM	COc1cc2ncc(-c3ccc(CC(=O)Nc4cc(C5(C(F)(F)F)CC5)on4)cc3)nc2cc1OC
< 5 nM	COc1cc2nc(-c3ccc(CC(=O)Nc4cc(C5(C)CC5)no4)c(F)c3)cnc2cc1OCCN1CCOCC1
< 5 nM	COc1cc2nc(-c3ccc(CC(=O)Nc4cc(C(C)(C)C(F)(F)F)nn4C)c(F)c3)cnc2cc1OCCN1CCOCC1
